In ChEMBL document CHEMBL1649327, “In vitro antimicrobial activity and mutant prevention concentration of colistin against Acinetobacter baumannii” (Antimicrob Agents Chemother, 2010):
In brackets after ≈: the same amount, converted by molar mass. Values belong to the compound of their own block, whether it stands above or below them.

Legend:
Acinetobacter baumannii [1] = assay: Antimicrobial activity against Acinetobacter baumannii assessed as resistant isolate by broth dilution method; format: functional
Acinetobacter baumannii [2] = assay: Antimicrobial activity against Acinetobacter baumannii assessed as susceptible isolate by broth dilution method; format: functional
Acinetobacter baumannii [3] = assay: Antimicrobial activity against Acinetobacter baumannii by broth dilution method; format: functional
Acinetobacter baumannii [4] = assay: Antimicrobial activity against Acinetobacter baumannii assessed as mutant prevention concentration; format: functional, organism-based
Acinetobacter baumannii [5] = assay: Ratio of mutant prevention concentration for Acinetobacter baumannii to MIC for Acinetobacter baumannii; format: functional, organism-based
Acinetobacter baumannii [6] = assay: Antimicrobial activity against Acinetobacter baumannii assessed as mutant prevention concentration require for 90% of isolates; format: functional, organism-based
Acinetobacter baumannii [7] = assay: Antimicrobial activity against Acinetobacter baumannii by broth dilution method in presence of beta-lactamase inhibitor Sulbactam; format: functional
Acinetobacter baumannii [8] = assay: Antimicrobial activity against Acinetobacter baumannii assessed as resistant isolate by broth dilution method in presence of beta-lactamase inhibitor Sulbactam; format: functional
Acinetobacter baumannii [9] = assay: Antimicrobial activity against Acinetobacter baumannii assessed as susceptible isolate by broth dilution method in presence of cilastatin; format: functional
Acinetobacter baumannii [10] = assay: Antimicrobial activity against Acinetobacter baumannii assessed as resistant isolate by broth dilution method in presence of cilastatin; format: functional
Acinetobacter baumannii [11] = assay: Antimicrobial activity against Acinetobacter baumannii by broth dilution method in presence of cilastatin; format: functional
Acinetobacter baumannii [12] = assay: Antimicrobial activity against Acinetobacter baumannii assessed as susceptible isolate by broth dilution method in presence of beta-lactamase inhibitor Sulbactam; format: functional
Homo sapiens [13] = assay: Cmax in patient at 225 mg, iv every 8 hrs for 2 days; format: ADME, organism-based; set-up: dose 225 mg, route intravenous; settings: in vivo
Homo sapiens [14] = assay: Cmax in patient at 225 mg, iv every 12 hrs for 2 days; format: ADME, organism-based; set-up: dose 225 mg, route intravenous; settings: in vivo

Compound: CO/N=C(\C(=O)N[C@@H]1C(=O)N2C(C(=O)[O-])=C(C[N+]3(C)CCCC3)CS[C@H]12)c1csc(N)n1
Activity (Acinetobacter baumannii [1]): 81.4%
Activity (Acinetobacter baumannii [2]): 15.7%

Compound: C[C@@H](O)[C@H]1C(=O)N2C(C(=O)O)=C(S[C@@H]3CN[C@H](C(=O)N(C)C)C3)[C@H](C)[C@H]12 [MEROPENEM]
MIC50 (Acinetobacter baumannii [3]): 32 µg/mL (≈ 83.4 µM)
MIC90 (Acinetobacter baumannii [3]): 64 µg/mL (≈ 167 µM)
Activity (Acinetobacter baumannii [1]): 77.1%
Activity (Acinetobacter baumannii [2]): 22.9%

Compound: CCN[C@@H]1C[C@H](N)[C@@H](O[C@H]2OC(CN)=CC[C@H]2N)[C@H](O)[C@H]1O[C@H]1OC[C@](C)(O)[C@H](NC)[C@H]1O [NETILMICIN]
MIC50 (Acinetobacter baumannii [3]): > 128 µg/mL
MIC90 (Acinetobacter baumannii [3]): > 128 µg/mL
Activity (Acinetobacter baumannii [1]): 75.7%
Activity (Acinetobacter baumannii [2]): 20%

Compound: COLISTIN [listing 1 of 2 here]
MIC50 (Acinetobacter baumannii [3]): 1 µg/mL
MIC90 (Acinetobacter baumannii [3]): 1 µg/mL
Activity (Acinetobacter baumannii [1]): 0%
MPC (Acinetobacter baumannii [4]): > 128 µg/mL
Ratio (Acinetobacter baumannii [5]): 128
Activity (Acinetobacter baumannii [2]): 100%
MPC (Acinetobacter baumannii [6]): > 128 µg/mL

Compound: NCC[C@H](O)C(=O)N[C@@H]1C[C@H](N)[C@@H](O[C@H]2O[C@H](CN)[C@@H](O)[C@H](O)[C@H]2O)[C@H](O)[C@H]1O[C@H]1O[C@H](CO)[C@@H](O)[C@H](N)[C@H]1O [AMIKACIN]
MIC50 (Acinetobacter baumannii [3]): > 128 µg/mL
MIC90 (Acinetobacter baumannii [3]): > 128 µg/mL
Activity (Acinetobacter baumannii [1]): 71.4%
Activity (Acinetobacter baumannii [2]): 28.6%

Compound: O=C(O)c1cn(C2CC2)c2cc(N3CCNCC3)c(F)cc2c1=O [CIPROFLOXACIN]
Activity (Acinetobacter baumannii [1]): 82.9%
Activity (Acinetobacter baumannii [2]): 15.7%

Compound: CC1(C)S[C@@H]2[C@H](NC(=O)[C@H](N)c3ccccc3)C(=O)N2[C@H]1C(=O)O [AMPICILLIN]
MIC50 (Acinetobacter baumannii [7]): 128 µg/mL
MIC90 (Acinetobacter baumannii [7]): > 128 µg/mL
Activity (Acinetobacter baumannii [8]): 81.4%

Compound: C[C@@H](O)[C@H]1C(=O)N2C(C(=O)O)=C(SCCNC=N)C[C@H]12 [IMIPENEM ANHYDROUS]
Activity (Acinetobacter baumannii [9]): 21.4%
Activity (Acinetobacter baumannii [10]): 75.7%
MIC50 (Acinetobacter baumannii [11]): 16 µg/mL
MIC90 (Acinetobacter baumannii [11]): 128 µg/mL

Compound: CCN1CCN(C(=O)N[C@@H](C(=O)N[C@@H]2C(=O)N3[C@@H]2SC(C)(C)[C@@H]3C(=O)O)c2ccccc2)C(=O)C1=O [PIPERACILLIN]
MIC50 (Acinetobacter baumannii [3]): 128 µg/mL (≈ 247 µM)
MIC90 (Acinetobacter baumannii [3]): > 128 µg/mL
Activity (Acinetobacter baumannii [1]): 82.9%
MIC50 (Acinetobacter baumannii [7]): > 128 µg/mL
MIC90 (Acinetobacter baumannii [7]): > 128 µg/mL
Activity (Acinetobacter baumannii [12]): 17.2%
Activity (Acinetobacter baumannii [2]): 10%
Activity (Acinetobacter baumannii [8]): 71.4%

Cmax (Homo sapiens [13]): 2930 ng/mL
Cmax (Homo sapiens [14]): 2930 ng/mL
Compound: COLISTIN [listing 2 of 2 here]

Compound: C[C@H]1COc2c(N3CCN(C)CC3)c(F)cc3c(=O)c(C(=O)O)cn1c23.C[C@H]1COc2c(N3CCN(C)CC3)c(F)cc3c(=O)c(C(=O)O)cn1c23.O [LEVOFLOXACIN]
MIC50 (Acinetobacter baumannii [3]): 4 µg/mL
MIC90 (Acinetobacter baumannii [3]): 16 µg/mL
Activity (Acinetobacter baumannii [1]): 32.8%
Activity (Acinetobacter baumannii [2]): 38.6%

Compound: CC(C)(O/N=C(\C(=O)N[C@@H]1C(=O)N2C(C(=O)[O-])=C(C[n+]3ccccc3)CS[C@H]12)c1csc(N)n1)C(=O)O [CEFTAZIDIME]
MIC50 (Acinetobacter baumannii [3]): > 128 µg/mL
MIC90 (Acinetobacter baumannii [3]): > 128 µg/mL
Activity (Acinetobacter baumannii [1]): 77.1%
Activity (Acinetobacter baumannii [2]): 17.2%

Compound: CCN1CCN(C(=O)N[C@@H](C(=O)N[C@@H]2C(=O)N3C(C(=O)O)=C(CSc4nnnn4C)CS[C@H]23)c2ccc(O)cc2)C(=O)C1=O [CEFOPERAZONE]
MIC50 (Acinetobacter baumannii [7]): > 128 µg/mL
MIC90 (Acinetobacter baumannii [7]): > 128 µg/mL
Activity (Acinetobacter baumannii [12]): 17.2%
Activity (Acinetobacter baumannii [8]): 81.4%
